Data: US20090156598A1, “Imidazolopyrimidine modulators of TRPV1” (priority 2007, published 2009)
pIC50: −log10 of the molar value.

Assays:
rat TRPV1 = target: T1, rat TRPV1 (Rattus norvegicus, UniProt O35433); test: Functional assay: block of capsaicin-induced Ca2+ influx, rat assay (FLIPR, rTRPV1/HEK293); assay type: cell-based; details: rTRPV1/HEK293 cells, capsaicin challenge, mean; > value = solubility limit in assay medium
T1 construct: expressed in transfected cells; host or cells: HEK293 (rTRPV1/HEK293), geneticin selection
Procedure: (§1) Functional assay: block of capsaicin-induced Ca^2+ influx
(§2) HEK293 cells were transfected with human TRPV1 cloned in pcDNA3.1zeo(+) using the Effectene non-liposomal lipid based transfection kit (Qiagen) (hTRPV1/HEK293). hTRPV1/HEK293 cells were routinely grown as monolayers under selection in zeocin (200 μg/mL; Invitrogen) in Dulbecco's Modified Eagle Medium (DMEM, Gibco BRL) supplemented with 10% fetal bovine serum, and penicillin/streptomycin (50 units/mL) in 5% CO2 at 37° C. Cells were passaged frequently, every 3-5 days, to avoid overgrowth, depletion of essential medium components, or acidic medium exposure. Cells were passaged using a brief wash in 0.05% trypsin with 1 mM EDTA, followed by dissociation in divalent-free phosphate-buffered saline (Hyclone #SH30028.02). Dissociated cells were seeded onto poly-D-lysine coated black-walled 96-well plates (Biocoat; Becton Dickinson #354640) at about 40,000 cells per well and grown for approximately 1 day in culture medium to near confluency. The assay buffer was composed of 130 mM NaCl, 2 mM KCl, 2 mM MgCl2, 10 mM HEPES, 5 mM glucose, and either 2 mM or 20 μM CaCl2. On the day of the experiment, the culture medium was replaced with 2 mM calcium assay buffer using an automated plate washer (EL×405; Biotek, VT). The cells were incubated in 100 μL/well Fluo-3/AM (2 μM; TEFLabs #0116) with Pluronic F127 (100 μg/mL; Sigma #P2443) for 1 h at rt in the dark. After loading the cells, the dye solution was replaced with 50 μL/well of 20 μM calcium assay buffer using the EL×405 plate washer. Test compounds (50 μL/well) were added to the plate and incubated for 30 min. Intracellular Ca^2+ levels were subsequently assayed using a Fluorometric Imaging Plate Reader (FLIPR™ instrument, Molecular Devices, CA) to simultaneously monitor Fluo-3 fluorescence in all wells (λexcitation=488 nm, λemission=540 nm) during challenge with agonist (capsaicin). The IC50 values were determined. Cells were challenged with 150 nM capsaicin and the fluorescence counts were captured following agonist addition at a sampling rate of 0.33 Hz. The contents of the wells were mixed 3 times (40 μL mix volume) immediately after the additions were made. Concentration-dependence of block was determined by exposing each well of cells in duplicate rows of a 96-well plate to a serial dilution of test compound. The concentration series usually started at 10 μM with a three-fold serial decrement in concentration. The magnitude of the capsaicin response was determined by measuring the change in fluo3 fluorescence before and 100 seconds after the addition of the agonist. Data were analyzed using a non-linear regression program (Origin; OriginLab, MA).
This assay was performed similarly to the human assay described above, but using HEK293 cells transfected with rat TRPV1 (rTRPV1/HEK293).
(§3) IC50 values shown are the average (mean) of the results obtained. Where activity is shown as greater than (>) a particular value, the value is the solubility limit of the compound in the assay medium.

human TRPV1 = target: T2, human TRPV1 (Homo sapiens, UniProt Q8NER1); test: Functional assay: block of capsaicin-induced Ca2+ influx, human assay (FLIPR, hTRPV1/HEK293); assay type: cell-based; details: hTRPV1/HEK293 cells, 150 nM capsaicin challenge, mean; > value = solubility limit in assay medium
T2 construct: expressed in transfected cells; host or cells: HEK293 (hTRPV1/HEK293), zeocin selection
Procedure: as §1, §2, §3

T2 sequence (Q8NER1 whole entry): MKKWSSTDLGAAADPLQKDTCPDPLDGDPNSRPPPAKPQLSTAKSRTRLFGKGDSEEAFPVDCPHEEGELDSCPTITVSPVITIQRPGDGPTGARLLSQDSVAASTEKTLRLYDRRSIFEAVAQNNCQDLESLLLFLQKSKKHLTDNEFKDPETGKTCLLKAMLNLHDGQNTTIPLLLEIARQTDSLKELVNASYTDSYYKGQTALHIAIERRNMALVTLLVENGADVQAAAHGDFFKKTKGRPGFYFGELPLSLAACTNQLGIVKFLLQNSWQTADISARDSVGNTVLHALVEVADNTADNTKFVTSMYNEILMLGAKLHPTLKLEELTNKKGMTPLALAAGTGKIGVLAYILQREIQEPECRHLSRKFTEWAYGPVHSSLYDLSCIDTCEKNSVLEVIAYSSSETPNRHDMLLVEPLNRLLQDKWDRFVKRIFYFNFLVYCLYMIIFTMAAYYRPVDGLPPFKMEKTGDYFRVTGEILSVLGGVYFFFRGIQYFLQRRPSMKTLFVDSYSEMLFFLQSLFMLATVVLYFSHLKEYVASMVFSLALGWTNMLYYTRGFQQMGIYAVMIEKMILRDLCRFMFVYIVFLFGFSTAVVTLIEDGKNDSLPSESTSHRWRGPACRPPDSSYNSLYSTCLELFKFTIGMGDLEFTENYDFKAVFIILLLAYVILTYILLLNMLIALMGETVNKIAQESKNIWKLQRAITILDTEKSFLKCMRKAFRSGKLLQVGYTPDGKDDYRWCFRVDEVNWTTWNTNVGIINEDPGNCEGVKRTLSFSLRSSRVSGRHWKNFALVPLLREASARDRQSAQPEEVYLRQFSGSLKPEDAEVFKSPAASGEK
T1 sequence (O35433 whole entry): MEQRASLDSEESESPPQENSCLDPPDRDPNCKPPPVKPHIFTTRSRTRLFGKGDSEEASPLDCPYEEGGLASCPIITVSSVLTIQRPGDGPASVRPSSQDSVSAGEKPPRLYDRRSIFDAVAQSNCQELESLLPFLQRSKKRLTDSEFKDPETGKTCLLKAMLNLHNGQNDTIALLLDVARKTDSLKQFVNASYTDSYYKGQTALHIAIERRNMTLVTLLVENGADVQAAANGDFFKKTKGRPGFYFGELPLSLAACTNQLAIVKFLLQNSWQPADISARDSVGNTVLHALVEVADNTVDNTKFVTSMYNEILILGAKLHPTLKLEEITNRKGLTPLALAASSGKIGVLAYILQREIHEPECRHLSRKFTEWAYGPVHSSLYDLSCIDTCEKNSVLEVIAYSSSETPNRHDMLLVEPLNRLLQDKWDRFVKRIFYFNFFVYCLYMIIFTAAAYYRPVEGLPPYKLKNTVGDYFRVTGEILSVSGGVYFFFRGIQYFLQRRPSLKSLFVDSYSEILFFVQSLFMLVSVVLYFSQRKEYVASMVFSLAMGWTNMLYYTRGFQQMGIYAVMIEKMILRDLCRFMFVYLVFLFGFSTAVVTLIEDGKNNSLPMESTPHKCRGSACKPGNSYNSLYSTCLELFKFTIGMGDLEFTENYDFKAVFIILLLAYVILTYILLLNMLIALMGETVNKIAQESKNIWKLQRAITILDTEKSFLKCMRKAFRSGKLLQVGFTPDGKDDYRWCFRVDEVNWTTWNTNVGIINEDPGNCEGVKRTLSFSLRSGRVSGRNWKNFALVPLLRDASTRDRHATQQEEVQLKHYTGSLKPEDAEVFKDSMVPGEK

Row | pIC50 (rat TRPV1) | pIC50 (human TRPV1) | SMILES
1 | 8.31 | 7.77 | FC(F)(F)c1ccc(Nc2ncnc3[nH]c(Nc4c(Cl)cccc4Cl)nc23)cc1 [Example 1, N^8-(2,6-Dichloro-phenyl)-N^6-(4-trifluoromethyl-phenyl)-9H-purine-6,8-diamine]
2 | 7.72 |  | FC(F)(F)c1ccc(Nc2ncnc3[nH]c(Nc4c(Cl)cccc4Cl)nc23)cn1 [Example 2, N^8-(2,6-Dichloro-phenyl)-N^6-(6-trifluoromethyl-pyridin-3-yl)-9H-purine-6,8-diamine]
3 | 9.82 | 8.64 | CC(C)(C)c1ccc(Nc2ncnc3[nH]c(Nc4c(Cl)cccc4Cl)nc23)cc1 [Example 3, N^6-(4-tert-Butyl-phenyl)-N^8-(2,6-dichloro-phenyl)-9H-purine-6,8-diamine]
4 | 5.76 | 5.47 | Clc1cccc(Cl)c1Nc1nc2c(Nc3ccccc3)ncnc2[nH]1 [Example 4, N^8-(2,6-Dichloro-phenyl)-N^6-phenyl-9H-purine-6,8-diamine]
5 | 7.74 | 6.77 | CS(=O)(=O)c1ccc(Nc2ncnc3[nH]c(Nc4c(Cl)cccc4Cl)nc23)cc1 [Example 5, N^8-(2,6-Dichloro-phenyl)-N^6-(4-methanesulfonyl-phenyl)-9H-purine-6,8-diamine]
6 | 8.52 | 7.54 | Cc1nc(Nc2ccc(C(F)(F)F)cc2)c2nc(Nc3c(Cl)cccc3Cl)[nH]c2n1 [Example 6, N^8-(2,6-Dichloro-phenyl)-2-methyl-N^6-(4-trifluoromethyl-phenyl)-9H-purine-6,8-diamine]
7 | < 5.18 | < 5.18 | FC(F)(F)c1ccc(Nc2ncnc3[nH]c(Nc4ccccc4Cl)nc23)cc1 [Example 7, N^8-(2-Chloro-phenyl)-N^6-(4-trifluoromethyl-phenyl)-9H-purine-6,8-diamine]
8 | 6.00 | 5.51 | FC(F)(F)c1ccc(Nc2ncnc3[nH]c(Nc4ccccc4C(F)(F)F)nc23)cc1 [Example 8, N^6-(4-Trifluoromethyl-phenyl)-N^8-(2-trifluoromethyl-phenyl)-9H-purine-6,8-diamine]
9 | 5.98 | 5.64 | FC(F)(F)c1ccc(Nc2ncnc3[nH]c(Nc4ccccc4C(F)(F)F)nc23)cn1 [Example 9, N^8-(2-Trifluoromethyl-phenyl)-N^6-(6-trifluoromethyl-pyridin-3-yl)-9H-purine-6,8-diamine]
10 | 5.95 | 5.84 | Cn1c(Nc2c(Cl)cccc2Cl)nc2c(Nc3ccc(C(F)(F)F)cc3)ncnc21 [Example 10, N^8-(2,6-Dichloro-phenyl)-9-methyl-N^6-(4-trifluoromethyl-phenyl)-9H-purine-6,8-diamine]
